System: human coronavirus (hCOV)-OC43
Type: cell-based

O=C(C1CC1)N1CCN(Cn2sc3ccccc3c2=O)CC1 [LOC13, 2-[[4-(cyclopropylcarbonyl)-1-piperazinyl]methyl]-1,2-benzisothiazol-3(2H)-one]
significantly decreased: hCoV-OC43 envelope protein mRNA level | hCoV-OC43 membrane protein mRNA level | hCoV-OC43 spike protein mRNA level

O=C1O[C@H]2[C@@H]3OC(=O)c4cc(O)c(O)c(O)c4-c4c(O)c(O)c5oc(=O)c6c(c(O)c(O)c7oc(=O)c4c5c76)-c4c(cc(O)c(O)c4O)C(=O)OC[C@H]3OC(O)[C@@H]2OC(=O)c2cc(O)c(O)c(O)c2-c2c1cc(O)c(O)c2O (mixture of isomers) [punicalagin]
significantly decreased: hCoV-OC43 envelope protein mRNA level | hCoV-OC43 membrane protein mRNA level | hCoV-OC43 spike protein mRNA level

Reference: US11883395B2 (priority 2020, dated 2024)
